Legend:
[1] = target: T1, enzyme FAAH (Fatty Acid Amide Hydrolase) (Mus musculus, UniProt O08914); test: FAAH fluorescent enzymatic test, hydrolysis of AAMC (Protocol 2); assay type: biochemical; conditions: mouse brain homogenate, AAMC 10 μM, preincubation 20 min at 25° C.
T1 construct: The membrane homogenates are prepared extemporaneously by homogenizing the tissues; from tissue; host or cells: mouse brain (minus the cerebellum), membrane homogenate
T1 sequence (O08914 1-579): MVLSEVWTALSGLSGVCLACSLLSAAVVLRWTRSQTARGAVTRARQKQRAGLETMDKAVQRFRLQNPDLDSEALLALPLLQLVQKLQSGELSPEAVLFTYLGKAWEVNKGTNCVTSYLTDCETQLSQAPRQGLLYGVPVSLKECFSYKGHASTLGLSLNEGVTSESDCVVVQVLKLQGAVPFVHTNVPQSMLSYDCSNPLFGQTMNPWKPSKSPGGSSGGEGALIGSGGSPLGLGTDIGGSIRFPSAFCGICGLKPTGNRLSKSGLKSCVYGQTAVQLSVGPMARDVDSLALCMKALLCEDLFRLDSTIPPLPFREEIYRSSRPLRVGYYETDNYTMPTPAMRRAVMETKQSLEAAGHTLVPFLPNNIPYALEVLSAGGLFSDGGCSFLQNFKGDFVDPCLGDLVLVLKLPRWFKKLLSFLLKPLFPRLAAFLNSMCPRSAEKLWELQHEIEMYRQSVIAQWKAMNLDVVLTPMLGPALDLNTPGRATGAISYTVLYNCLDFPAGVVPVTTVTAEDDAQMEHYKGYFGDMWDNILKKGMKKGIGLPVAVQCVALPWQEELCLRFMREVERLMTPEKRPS
Procedure: Thus, mouse brains (minus the cerebellum) are withdrawn and stored at −80° C. The brain homogenates are prepared extemporaneously by homogenizing the tissues using a Precellys® machine in reaction buffer (10 mM Tris-HCl, pH=8, 150 mM NaCl and 1 mM ethylenediaminetetraacetic acid (EDTA)). The enzymatic reaction is performed in black polystyrene 384-well plates in a final volume of 50 μL. Reaction buffer supplemented with fatty acid-free bovine serum albumin (BSA, 1 mg/ml) is used for the enzymatic reaction, the dilution of the compounds and the dilution of the AAMC. Reaction buffer containing the BSA (25 μL/well), the diluted test compounds at different concentrations (5 μL/well containing 1% DMSO) and the membrane preparation (10 μL/well, i.e. 200 μg of tissue per test) are successively added to the wells. After preincubation for 20 minutes of the compounds with the enzyme at 25° C., the reaction is started by adding 10 μL of substrate per well (AAMC, final concentration of 10 μM). After incubation for 40 minutes, the aminomethyl coumarin (AMC) produced is measured by fluorescent counting (Envision plate reader).

melting point: 212 to 215 °C
IC50 [1]: 0.7 nM
SMILES: CNC(=O)c1cc(COC(=O)NCCC2CCN(c3ccc(-c4ccc(F)cc4)cc3)CC2)on1 [Compound 29, 3-methylcarbamoylisoxazol-5-ylmethyl 2-[1-(4′-fluorobiphenyl-4-yl)piperidin-4-yl]ethylcarbamate]

— patent US8716289B2, “Carbamate derivatives of alkyl-heterocycles, preparation thereof and therapeutic use thereof” (Sanofi, priority 2008, dated 2014)
